Results from paper PMC10148158, “Mechanism and linkage specificities of the dual retaining β-Kdo glycosyltransferase modules of KpsC from bacterial capsule biosynthesis” (The Journal of Biological Chemistry, 2023).

Molecular target: T1, KpsC-NEc (E. coli KpsC^2-323) (Escherichia coli, UniProt A0A0H2Z2W8)
T1 construct: N-terminal GT module, residues 2-323, His6-tag kept, expressed in E. coli BL21(DE3)
Test: LC-MS of intact protein
Assay type: biochemical
Settings: covalent; Kdo on Asp160; CMP-Kdo made in situ by KdsB; no acceptor

T1 sequence (A0A0H2Z2W8 entry or part of it): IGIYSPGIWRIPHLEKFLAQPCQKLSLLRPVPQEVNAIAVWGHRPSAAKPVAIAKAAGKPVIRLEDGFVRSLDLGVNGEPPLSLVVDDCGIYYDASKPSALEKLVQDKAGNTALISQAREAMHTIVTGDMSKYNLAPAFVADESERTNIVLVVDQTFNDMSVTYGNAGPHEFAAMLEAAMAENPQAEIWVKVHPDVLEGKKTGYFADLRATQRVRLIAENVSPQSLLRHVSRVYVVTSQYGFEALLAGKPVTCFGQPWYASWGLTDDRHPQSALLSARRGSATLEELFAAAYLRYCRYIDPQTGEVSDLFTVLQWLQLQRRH

Nc1ccn([C@@H]2O[C@H](COP(=O)(O)O[C@@]3(C(=O)O)C[C@@H](O)[C@@H](O)[C@@H]([C@H](O)CO)O3)[C@@H](O)[C@H]2O)c(=O)n1 [CMP-Kdo]
Kdo adduct mass increase: The native KpsC-NEc enzyme therefore appears capable of forming covalent Kdo adducts in vitro.
